From the supplement of paper PMC10307832

Columns and labels:
Assay in all cases: relative viability (nuclei count vs DMSO), 5 days (fraction); higher = more cells survive
[1] = tested on: NCI-H522
How it was run: (§1)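 Lung cancer cell lines were pin-tool dosed in 1536-well plates on the day after seeding, with either a lone drug or a fixed anchor-drug dose plus five library-drug doses (not always all listed) in √10 steps. Nuclei were counted on 4× images after 5 days. Relative viability is the ratio of treated-well to vehicle-well nuclei counts, with each value a median of duplicate plates.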

[2] = tested on: NCI-H441
How it was run: as §1

[3] = tested on: HCC-15
How it was run: as §1

[4] = tested on: NCI-H2347
How it was run: as §1

[5] = tested on: NCI-H2023
How it was run: as §1

[6] = tested on: ABC-1
How it was run: as §1

[7] = tested on: NCI-H1793
How it was run: as §1

[8] = tested on: NCI-H322M
How it was run: as §1

[9] = tested on: NCI-H1734
How it was run: as §1

[10] = tested on: NCI-H838
How it was run: as §1

[11] = tested on: A-427
How it was run: as §1

[12] = tested on: NCI-H647
How it was run: as §1

[13] = tested on: NCI-H1915
How it was run: as §1

[14] = tested on: NCI-H358
How it was run: as §1

[15] = tested on: NCI-H2342
How it was run: as §1

[16] = tested on: NCI-H1944
How it was run: as §1

[17] = tested on: SW 1573
How it was run: as §1

[18] = tested on: LK-2
How it was run: as §1

[19] = tested on: EPLC-272H
How it was run: as §1

[20] = tested on: RERF-LC-KJ
How it was run: as §1

[21] = tested on: UMC-11
How it was run: as §1

[22] = tested on: NCI-H2009
How it was run: as §1

[23] = tested on: LC-2-ad
How it was run: as §1

CCNC(=O)c1noc(-c2cc(C(C)C)c(O)cc2O)c1-c1ccc(CN2CCOCC2)cc1 [Luminespib] + Cc1nc(Nc2ncc(C(=O)Nc3c(C)cccc3Cl)s2)cc(N2CCN(CCO)CC2)n1 [Dasatinib] (partner 0.075 µM)
relative viability ([1]; first compound 0.002 µM): 1.1 | relative viability ([1]; first compound 0.006325 µM): 0.936 | relative viability ([1]; first compound 0.02 µM): 0.776 | relative viability ([1]; first compound 0.06325 µM): 0.577 | relative viability ([1]; first compound 0.2 µM): 0.481 | relative viability ([2]; first compound 0.002 µM): 0.579 | relative viability ([2]; first compound 0.006325 µM): 0.649 | relative viability ([2]; first compound 0.02 µM): 0.329 | relative viability ([2]; first compound 0.06325 µM): 0.132 | relative viability ([2]; first compound 0.2 µM): 0.114 | relative viability ([3]; first compound 0.002 µM): 0.708 | relative viability ([3]; first compound 0.006325 µM): 0.603 | relative viability ([3]; first compound 0.02 µM): 0.61 | relative viability ([3]; first compound 0.06325 µM): 0.084 | relative viability ([3]; first compound 0.2 µM): 0.0846 | relative viability ([4]; first compound 0.002 µM): 0.299 | relative viability ([4]; first compound 0.006325 µM): 0.245 | relative viability ([4]; first compound 0.02 µM): 0.291 | relative viability ([4]; first compound 0.06325 µM): 0.256 | relative viability ([4]; first compound 0.2 µM): 0.198 | relative viability ([5]; first compound 0.002 µM): 0.589 | relative viability ([5]; first compound 0.006325 µM): 0.525 | relative viability ([5]; first compound 0.02 µM): 0.198 | relative viability ([5]; first compound 0.06325 µM): 0.0548 | relative viability ([5]; first compound 0.2 µM): 0.0529 | relative viability ([6]; first compound 0.002 µM): 0.691 | relative viability ([6]; first compound 0.006325 µM): 0.526 | relative viability ([6]; first compound 0.02 µM): 0.446 | relative viability ([6]; first compound 0.06325 µM): 0.197 | relative viability ([6]; first compound 0.2 µM): 0.193 | relative viability ([7]; first compound 0.002 µM): 0.39 | relative viability ([7]; first compound 0.006325 µM): 0.359 | relative viability ([7]; first compound 0.02 µM): 0.117 | relative viability ([7]; first compound 0.06325 µM): 0.116 | relative viability ([7]; first compound 0.2 µM): 0.14 | relative viability ([8]; first compound 0.002 µM): 0.234 | relative viability ([8]; first compound 0.006325 µM): 0.262 | relative viability ([8]; first compound 0.02 µM): 0.215 | relative viability ([8]; first compound 0.06325 µM): 0.268 | relative viability ([8]; first compound 0.2 µM): 0.276 | relative viability ([9]; first compound 0.002 µM): 0.552 | relative viability ([9]; first compound 0.006325 µM): 0.419 | relative viability ([9]; first compound 0.02 µM): 0.314 | relative viability ([9]; first compound 0.06325 µM): 0.117 | relative viability ([9]; first compound 0.2 µM): 0.106 | relative viability ([10]; first compound 0.002 µM): 0.301 | relative viability ([10]; first compound 0.006325 µM): 0.281 | relative viability ([10]; first compound 0.02 µM): 0.233 | relative viability ([10]; first compound 0.06325 µM): 0.189 | relative viability ([10]; first compound 0.2 µM): 0.203 | relative viability ([11]; first compound 0.002 µM): 0.779 | relative viability ([11]; first compound 0.006325 µM): 0.671 | relative viability ([11]; first compound 0.02 µM): 0.483 | relative viability ([11]; first compound 0.06325 µM): 0.33 | relative viability ([11]; first compound 0.2 µM): 0.128 | relative viability ([12]; first compound 0.002 µM): 0.199 | relative viability ([12]; first compound 0.006325 µM): 0.13 | relative viability ([12]; first compound 0.02 µM): 0.13 | relative viability ([12]; first compound 0.06325 µM): 0.0549 | relative viability ([12]; first compound 0.2 µM): 0.0598 | relative viability ([13]; first compound 0.002 µM): 0.311 | relative viability ([13]; first compound 0.006325 µM): 0.299 | relative viability ([13]; first compound 0.02 µM): 0.234 | relative viability ([13]; first compound 0.06325 µM): 0.236 | relative viability ([13]; first compound 0.2 µM): 0.0739 | relative viability ([14]; first compound 0.002 µM): 0.149 | relative viability ([14]; first compound 0.006325 µM): 0.164 | relative viability ([14]; first compound 0.02 µM): 0.0956 | relative viability ([14]; first compound 0.06325 µM): 0.0558 | relative viability ([14]; first compound 0.2 µM): 0.0633 | relative viability ([15]; first compound 0.002 µM): 0.351 | relative viability ([15]; first compound 0.006325 µM): 0.33 | relative viability ([15]; first compound 0.02 µM): 0.287 | relative viability ([15]; first compound 0.06325 µM): 0.259 | relative viability ([15]; first compound 0.2 µM): 0.311 | relative viability ([16]; first compound 0.002 µM): 0.195 | relative viability ([16]; first compound 0.006325 µM): 0.232 | relative viability ([16]; first compound 0.02 µM): 0.169 | relative viability ([16]; first compound 0.06325 µM): 0.107 | relative viability ([16]; first compound 0.2 µM): 0.132 | relative viability ([17]; first compound 0.002 µM): 0.506 | relative viability ([17]; first compound 0.006325 µM): 0.532 | relative viability ([17]; first compound 0.02 µM): 0.13 | relative viability ([17]; first compound 0.06325 µM): 0.0551 | relative viability ([17]; first compound 0.2 µM): 0.0703 | relative viability ([18]; first compound 0.002 µM): 0.267 | relative viability ([18]; first compound 0.006325 µM): 0.293 | relative viability ([18]; first compound 0.02 µM): 0.251 | relative viability ([18]; first compound 0.06325 µM): 0.146 | relative viability ([18]; first compound 0.2 µM): 0.128 | relative viability ([19]; first compound 0.002 µM): 0.365 | relative viability ([19]; first compound 0.006325 µM): 0.349 | relative viability ([19]; first compound 0.06325 µM): 0.35 | relative viability ([19]; first compound 0.2 µM): 0.0778 | relative viability ([20]; first compound 0.002 µM): 0.833 | relative viability ([20]; first compound 0.006325 µM): 0.897 | relative viability ([20]; first compound 0.02 µM): 0.603 | relative viability ([20]; first compound 0.06325 µM): 0.232 | relative viability ([20]; first compound 0.2 µM): 0.234 | relative viability ([21]; first compound 0.002 µM): 0.474 | relative viability ([21]; first compound 0.006325 µM): 0.488 | relative viability ([21]; first compound 0.02 µM): 0.309 | relative viability ([21]; first compound 0.06325 µM): 0.214 | relative viability ([21]; first compound 0.2 µM): 0.153 | relative viability ([22]; first compound 0.002 µM): 0.342 | relative viability ([22]; first compound 0.006325 µM): 0.251 | relative viability ([22]; first compound 0.02 µM): 0.222 | relative viability ([22]; first compound 0.06325 µM): 0.0645 | relative viability ([22]; first compound 0.2 µM): 0.0808 | relative viability ([23]; first compound 0.002 µM): 0.583 | relative viability ([23]; first compound 0.006325 µM): 0.567 | relative viability ([23]; first compound 0.02 µM): 0.447 | relative viability ([23]; first compound 0.06325 µM): 0.142 | relative viability ([23]; first compound 0.2 µM): 0.16
